The values that follow come from DBAASP.

Some test systems named below: Candida glabrata 090902; Klebsiella pneumoniae; Bacillus megaterium; Shigella dysenteriae; Escherichia coli 44102; Bacillus subtilis A47.
Common to all, as to assay: ≥ marks a high value that may be exact or a test limit, other limits are often not marked, values filed in µg/mL are converted to µM
The subject of test [1] is Porphyromonas gingivalis ATCC 53978.
Test [2] deals with Porphyromonas gingivalis ATCC 33277.
In test [3] the test system is Escherichia coli K12 MG1655.
In test [4] the test system is Staphylococcus aureus 68 HER 1049.
Test [5] deals with Enterobacter cloacae CGMCC 1.57.
For test [6], the system named is Nocardia asteroides 201118.
Test [7] deals with Pseudomonas aeruginosa CGMCC 1.50.
Test [8] relates to Klebsiella pneumoniae 08040724.
Test [9] has as its system Psychrobacter faecalis X29.
Test [10] deals with Enterococcus faecalis 981.
Test [11] concerns Escherichia coli ATCC 25922.
In test [12] the test system is Enterococcus faecium 091299.
For test [13], the system named is Listeria monocytogenes ATCC 19111.
In test [14] the test system is Staphylococcus aureus NCDC 0111.
Test [15] deals with Acinetobacter johnsonii NCDC 0072.
Test [16] relates to Pseudomonas aeruginosa ATCC 27853.
Test [17] relates to Escherichia coli MTCC 0723.
For test [18], the system named is Salmonella enterica subsp. enterica serovar Typhimurium ATCC 14028.
The test system of test [19] is Pseudomonas aeruginosa NCDC 0105.
The test system of test [20] is Bacillus cereus NCDC 0240.
The test system of test [21] is Staphylococcus aureus ATCC 29213.
In test [22] the test system is Staphylococcus aureus ATCC 2592.
Test [23] relates to Pseudomonas aeruginosa CMCCB 10104.
Test [24] deals with Candida albicans ATCC 2002.
The test system of test [25] is Pseudomonas aeruginosa A62.
The test system of test [26] is Staphylococcus aureus 22401.
Test [27] relates to Pseudomonas aeruginosa DM23155.
The subject of test [28] is Klebsiella pneumoniae DM4299.

Converted amounts (≈) assume the structure as drawn.

By MIC is commonly meant the lowest concentration that inhibits growth of the organism.

On to `CC[C@H](C)[C@H](NC(=O)CNC(=O)[C@H](CCC(=O)O)NC(=O)CNC(=O)[C@H](C)NC(=O)CNC(=O)[C@H](Cc1cnc[nH]1)NC(=O)[C@@H]1CCCN1C(=O)[C@@H](N)CCCN=C(N)N)C(=O)N[C@@H](CC(=O)O)C(=O)N[C@@H](CCCN=C(N)N)C(=O)N[C@H](C(=O)N1CCC[C@H]1C(=O)N[C@@H](C)C(=O)NCC(=O)N1CCC[C@H]1C(=O)N[C@@H](CO)C(=O)N1CCC[C@H]1C(=O)N[C@@H](CO)C(=O)N[C@@H](CCC(=O)O)C(=O)N[C@H](C(=O)NCC(=O)N[C@@H](CC(C)C)C(=O)N[C@@H](C)C(=O)N[C@H](C(=O)N1CCC[C@H]1C(=O)N[C@@H](CO)C(=O)NCC(=O)N[C@@H](CCCCN)C(=O)O)[C@@H](C)CC)C(C)C)C(C)C` [RPHGAGEGIDRVPAGPSPSEVGLAIPSGK], for which the minimum inhibitory concentration (MIC) in test [1] and in [2] was 1.7 µM (≈ 4.78 µg/mL) each time.

On to `CC[C@H](C)[C@H](NC(=O)[C@H](CCCN=C(N)N)NC(=O)[C@H](CCCN=C(N)N)NC(=O)[C@H](CC(C)C)NC(=O)[C@H](CCCCN)NC(=O)[C@H](CCCCN)NC(=O)[C@H](Cc1c[nH]c2ccccc12)NC(=O)[C@H](CCCN=C(N)N)NC(=O)[C@H](CCCCN)NC(=O)[C@H](Cc1c[nH]c2ccccc12)NC(=O)[C@@H](N)Cc1c[nH]c2ccccc12)C(=O)N[C@@H](Cc1ccccc1)C(=O)N[C@@H](CC(C)C)C(=O)N[C@@H](CCSC)C(=O)N[C@@H](CC(C)C)C(=O)O` [WWKRWKKLRRIFLML], for which the MIC in [3] and in test [4] was 1.85 µM (≈ 4 µg/mL) in each case.

As for `CC[C@H](C)[C@H](NC(=O)CN)C(=O)N[C@@H](CC(C)C)C(=O)N[C@@H](CC(=O)O)C(=O)N[C@H](C(=O)N[C@@H](CC(C)C)C(=O)N[C@@H](CCCCN)C(=O)N[C@@H](CCC(N)=O)C(=O)N[C@@H](CC(C)C)C(=O)NCC(=O)N[C@@H](CCCCN)C(=O)N[C@@H](C)C(=O)N[C@@H](C)C(=O)N[C@@H](C)C(=O)N[C@@H](CCC(N)=O)C(=O)N[C@@H](CO)C(=O)N[C@@H](CC(C)C)C(=O)N[C@@H](CC(C)C)C(=O)N[C@@H](CO)C(=O)N[C@@H](CCCCN)C(=O)N[C@@H](C)C(=O)N[C@@H](C)C(=O)N[C@H]1CSSC[C@@H](C(=O)O)NC(=O)[C@H]([C@@H](C)O)NC(=O)[C@H](CCCCN)NC(=O)[C@H](C)NC(=O)[C@H](CC(C)C)NC(=O)[C@H](CCCCN)NC1=O)[C@@H](C)O` [GILDTLKQLGKAAAQSLLSKAACKLAKTC], the minimal inhibitory concentration (MIC) in test [5] is not below 50 µM; in test [6], 6.3 µM (≈ 18.5 µg/mL); with Candida glabrata 090902, not below 50 µM; in test [7] it was not below 50 µM; in [8] it was not below 100 µM; in [9], 3.1 µM (≈ 9.13 µg/mL). Also, the minimum inhibitory concentration (MIC) in test [10] was not below 50 µM; in test [11] it was 50 µM (≈ 147 µg/mL); in [12] it was 6.3 µM (≈ 18.5 µg/mL).

As to `CC[C@H](C)[C@H](NC(=O)[C@H](CO)NC(=O)[C@H](Cc1c[nH]c2ccccc12)NC(=O)[C@@H]1CCCN1C(=O)[C@@H](NC(=O)[C@H](C)N)[C@@H](C)CC)C(=O)N[C@@H](Cc1c[nH]c2ccccc12)C(=O)N[C@@H](Cc1c[nH]c2ccccc12)C(=O)N[C@@H](CCCN=C(N)N)C(=O)N[C@@H](CC(C)C)C(=O)N[C@@H](CC(C)C)C(=O)N[C@@H](Cc1ccccc1)C(=O)N[C@@H](CCCCN)C(=O)NCC(=O)O` [AIPWSIWWRLLFKG], the minimum inhibitory concentration (MIC) was 3 µM (≈ 5.32 µg/mL) in [13]; 6 µM (≈ 10.6 µg/mL) in test [14]; not below 200 µM in [15]; 100 µM (≈ 177 µg/mL) in test [16]; not below 200 µM in test [17]; 0.2 µM (≈ 0.355 µg/mL) in test [18]. Further, the MIC in test [19] is not below 50 µM; in [20] it was not below 100 µM; in test [21] it was 6 µM (≈ 10.6 µg/mL).

As for `CC[C@H](C)[C@H](NC(=O)CN)C(=O)NCC(=O)N[C@H](C(=O)N[C@@H](CCCCN)C(=O)N[C@H](C(=O)N[C@@H](CC(C)C)C(=O)NCC(=O)NCC(=O)N[C@H](C(=O)N[C@@H](CCCCN)C(=O)N[C@H](C(=O)N[C@@H](C)C(=O)N[C@@H](CC(C)C)C(=O)N[C@@H](CCCCN)C(=O)NCC(=O)N[C@@H](C)C(=O)N[C@@H](CC(C)C)C(=O)N[C@@H](CCCCN)C(=O)N[C@@H](CCC(=O)O)C(=O)N[C@@H](CC(C)C)C(=O)N[C@@H](C)C(=O)N[C@@H](CO)C(=O)N[C@H](C(=O)N[C@@H](Cc1ccc(O)cc1)C(=O)N[C@H](C(=O)N[C@@H](CC(N)=O)C(N)=O)C(C)C)[C@@H](C)O)[C@@H](C)O)C(C)C)[C@@H](C)CC)[C@@H](C)O` [GIGTKILGGVKTALKGALKELASTYVN], the MIC in [22] worked out at 7.21 µM (≈ 19.5 µg/mL); in test [23], 7.21 µM (≈ 19.5 µg/mL); in test [24], 1.11 µM (≈ 3 µg/mL); against Klebsiella pneumoniae, 3.33 µM (≈ 9 µg/mL); against Bacillus megaterium it was 7.21 µM (≈ 19.5 µg/mL); against Shigella dysenteriae it was 0.999 µM (≈ 2.7 µg/mL). This molecule displayed an MIC in test [11] of 7.21 µM (≈ 19.5 µg/mL).

On to `CC[C@H](C)[C@H](N)C(=O)N[C@@H](CC(C)C)C(=O)N1CCC[C@H]1C(=O)N[C@H](C(=O)N[C@H](C(=O)NCC(=O)N[C@@H](CCCCN)C(=O)N[C@H](C(=O)N[C@@H](CC(C)C)C(=O)N[C@@H](CO)C(=O)N[C@H](C(=O)N[C@H](C(=O)N[C@@H](Cc1ccccc1)C(=O)NCC(=O)N[C@@H](CCCCN)C(=O)O)[C@@H](C)CC)[C@@H](C)O)[C@@H](C)CC)[C@@H](C)CC)[C@@H](C)CC` [ILPIIGKILSTIFGK], for which the minimal inhibitory concentration (MIC) in test [25] was 12.5 µM (≈ 20.2 µg/mL); in the test with Escherichia coli 44102, not below 50 µM; in test [26] it was 6.25 µM (≈ 10.1 µg/mL); in the test on Bacillus subtilis A47, 25 µM (≈ 40.3 µg/mL).

On to `CC(=O)N[C@@H](CCCN=C(N)N)C(=O)NCC(=O)N[C@@H](CCCN=C(N)N)C(=O)N[C@@H](CCCCN)C(=O)NCC(=O)NCC(=O)N[C@@H](CCCN=C(N)N)C(=O)N[C@@H](CCCN=C(N)N)C(=O)N[C@@H](CCCCN)C(=O)N[C@@H](CCCCN)C(=O)O` [RGRKGGRRKK], for which the values for the minimum inhibitory concentration (MIC) in [27], in test [28] and in test [11] were 6 µM (≈ 7.44 µg/mL), 3 µM (≈ 3.72 µg/mL) and 1.5 µM (≈ 1.86 µg/mL), respectively.
